Test results as given in patent US8557796B2, “Substituted 1-oxa-2,8-diaza-spiro [4,5] dec-2-ene derivatives and related treatment methods” (Gruenenthal GmbH, priority 2001, dated 2013).

test system: batrachotoxin (BTX) binding site (binding site 2) of the sodium channel; assay: Bond test on the sodium channel, binding site 2 (BTX bond), [3H]-batrachotoxinin A20 α-benzoate displacement; settings: rat cerebrocortex synaptosomes

Structure (SMILES) | BTX bond, 10 μM, % inhibition [%]
O=C(C1=NOC2(CCN(S(=O)(=O)c3ccc(OC(F)(F)F)cc3)CC2)C1)N1CCN(CCCc2ccccc2)CC1 [Example 176, [4-(3-phenyl-propyl)-piperazin-l-yl]-[8-(4-trifluoromethoxy-benzenesulphonyl)-1-oxa-2,8-diaza-spiro [4,5]dec-2-en-3-yl]-methanone] | 76
Cc1onc(-c2c(F)cccc2Cl)c1C(=O)N1CCC2(CC1)CC(C(=O)NCc1ccccc1)=NO2 [Example 177, 8-[3-(2-chloro-6-fluorophenyl)-5-methyl-isoxazole-4-carbonyl]-1-oxa-2,8-diaza-spiro [4,5]dec-2-ene-3-carboxylic acid benzylamide] | 45
CCOC(=O)C1CCCCN1C(=O)C1=NOC2(CCN(C(=O)c3cc(C(C)(C)C)oc3C)CC2)C1 (stereo not shown) [Example 179, 1-[8-(5-tert-butyl-2-methyl-furan-3-carbonyl)-1-oxa-2,8-diaza-spiro[4,5]dec-2-ene-3-carbonyl]-piperidine-2-carboxylic acid ethyl ester] | 55
O=C(NCc1ccccc1)C1=NOC2(CCN(C(=O)c3cccc(SC(F)F)c3)CC2)C1 [Example 180, 8-(3-difluoromethylsulphanyl-benzoyl)-1-oxa-2,8-diaza-spiro[4,5]dec-2-ene-3-carboxylic acid benzylamide] | 57
O=C(Nc1ccccc1)C1=NOC2(CCN(C(=O)c3ccc(Br)cc3)CC2)C1 [Example 181, 8-(4-bromo-benzoyl)-1-oxa-2,8-diaza-spiro[4,5]dec-2-ene-3-acarboxylic cid phenylamide] | 50
COc1ccc(S(=O)(=O)N2CCC3(CC2)CC(C(=O)NC2CC2c2ccccc2)=NO3)cc1 (stereo not shown) [Example 182, 8-(4-methoxy-benzenesulphonyl)-1-oxa-2,8-diaza-spiro[4,5]dec-2-ene-3-carboxylic acid (2-phenyl-cyclopropyl)-amide] | 47
O=C(NCc1cccs1)C1=NOC2(CCN(C(=O)CCCOc3ccccc3)CC2)C1 [Example 183] | 68
O=C(NCc1cccs1)C1=NOC2(CCN(C(=O)c3ccc(F)c(Cl)c3)CC2)C1 [Example 184, 8-(3-chloro-4-fluorobenzoyl)-1-oxa-2,8-diaza-spiro[4,5]dec-2-ene-3-carboxylic acid (thiophen-2-ylmethyl)-amide] | 73
O=C(C1=NOC2(CCN(S(=O)(=O)c3ccc(F)cc3)CC2)C1)N1CCN(CCCc2ccccc2)CC1 [Example 186, [8-(4-fluoro-benzenesulphonyl)-1-oxa-2,8-diaza-spiro[4,5]dec-2-en-3-yl]-[4-(3-phenyl-propyl)-piperazin-1-yl]-methanone] | 56
O=C(NC1CCCC1)C1=NOC2(CCN(C(=O)c3ccccc3COC(=O)c3ccccc3)CC2)C1 [Example 188] | 77
CN(C)S(=O)(=O)N1CCC2(CC1)CC(C(=O)N1CCN(Cc3ccc(C(C)(C)C)cc3)CC1)=NO2 [Example 189, 3-[4-(4-tert-butyl-benzyl)-piperazine-1-carbonyl]-1-oxa-2,8-diaza-spiro[4,5]dec-2-ene-8-sulphonic acid dimethylamide] | 69
O=C(NC1CCCC1OCc1ccccc1)C1=NOC2(CCN(S(=O)(=O)c3ccc(Cl)s3)CC2)C1 (stereo not shown) [Example 191] | 75
O=C(NCc1cccs1)C1=NOC2(CCN(C(=O)c3cccc4ccccc34)CC2)C1 [Example 192, 8-(naphthalene-1-carbonyl)-1-oxa-2,8-diaza-spiro[4,5]dec-2-ene-3-carboxylic acid (thiophen-2-ylmethyl)-amide] | 87
O=C(NCCCc1ccccc1)C1=NOC2(CCN(S(=O)(=O)c3ccc(F)cc3)CC2)C1 [Example 193, 8-(4-fluoro-benzenesulphonyl)-1-oxa-2,8-diaza-spiro[4,5]dec-2-ene-3-carboxylic acid (3-phenyl-propyl)-amide] | 66
O=C(NCC1COc2ccccc2O1)C1=NOC2(CCN(S(=O)(=O)c3ccc(Cl)s3)CC2)C1 (stereo not shown) [Example 194, 8-(5-chloro-thiophene-2-sulphonyl)-1-oxa-2,8-diaza-spiro[4,5]dec-2-ene-3-carboxylic acid (2,3-dihydro-benzo[1,4]dioxin-2-ylmethyl)-amide] | 68
CCOC(=O)C1CCCCN1C(=O)C1=NOC2(CCN(C(=O)c3ccc(C(C)(C)C)cc3)CC2)C1 (stereo not shown) [Example 195, 1-[8-(4-tert-butyl-benzoyl)-1-oxa-2,8-diaza-spiro[4,5]dec-2-ene-3-carbonyl]-piperidine-2-carboxylic acid ethyl ester] | 85

Structure (SMILES) | BTX bond, 10 μM, % inhibition [%]
O=C(NCCc1cccc(C(F)(F)F)c1)C1=NOC2(CCN(S(=O)(=O)c3ccc(F)cc3)CC2)C1 [Example 196] | 51
Cc1onc(-c2c(Cl)cccc2Cl)c1C(=O)N1CCC2(CC1)CC(C(=O)NCc1cccs1)=NO2 [Example 197, 8-[3-(2,6-dichloro-phenyl)-5-methyl-isoxazole-4-carbonyl]-1-oxa-2,8-diaza-spiro[4,5]dec-2-ene-3-carboxylic acid (thiophen-2-ylmethyl)-amide] | 70
O=C(NC1CCCC1OCc1ccccc1)C1=NOC2(CCN(S(=O)(=O)c3ccc(F)cc3)CC2)C1 (stereo not shown) [Example 199] | 67
O=C(NC1CCCC1OCc1ccccc1)C1=NOC2(CCN(S(=O)(=O)c3cccc(C(F)(F)F)c3)CC2)C1 (stereo not shown) [Example 201, 8-(3-trifluoromethyl-benzenesulphonyl)-1-oxa-2,8-diaza-spiro[4,5]dec-2-ene-3-carboxylic acid (2-benzyloxy-cyclopentyl)-amide] | 61
O=C(NCc1ccccc1)C1=NOC2(CCN(C(=O)c3ccc(F)c(Cl)c3)CC2)C1 [Example 205, 8-(3-chloro-4-fluorobenzoyl)-1-oxa-2,8-diaza-spiro[4,5]dec-2-ene-3-carboxylic acid benzylamide] | 53
O=C(NCc1ccccc1F)C1=NOC2(CCN(S(=O)(=O)c3ccc(F)cc3)CC2)C1 [Example 207, 8-(4-fluoro-benzenesulphonyl)-1-oxa-2,8-diaza-spiro[4,5]dec-2-ene-3-carboxylic acid 2 fluorobenzylamide] | 56
O=C(NCc1cccs1)C1=NOC2(CCN(C(=O)c3cccc(Cl)c3)CC2)C1 [Example 208] | 74
O=C(C1=NOC2(CCN(S(=O)(=O)c3cc(Cl)ccc3Cl)CC2)C1)N1CCN(Cc2ccccc2)CC1 [Example 209, (4-benzyl-piperazin-l-yl)-[8-(2,5-dichloro-benzenesulphonyl)-1-oxa-2,8-diaza-spiro[4,5]dec-2-en-3-yl]-methanone] | 61
O=C(NCc1ccccc1)C1=NOC2(CCN(S(=O)(=O)c3cccc(Cl)c3)CC2)C1 [Example 210, 8-(3-chloro-benzenesulphonyl)-1-oxa-2,8-diaza-spiro[4,5]dec-2-ene-3-carboxylic acid benzylamide] | 62
O=C(C1=NOC2(CCN(S(=O)(=O)c3cccc(C(F)(F)F)c3)CC2)C1)N1CCC(Cc2ccccc2)CC1 [Example 211, (4-benzyl-piperidin-l-yl)-[8-(3-trifluoromethyl-benzene-sulphonyl)-1-oxa-2,8-diaza-spiro[4,5]dec-2-en-3-yl]-methanone] | 48
O=C(NCc1ccccc1)C1=NOC2(CCN(C(=O)c3ccc(Br)cc3)CC2)C1 [Example 212, 8-(4-bromo-benzoyl)-1-oxa-2,8-diaza-spiro[4,5]dec-2-ene-3-carboxylic acid benzylamide] | 58
CC(C)CC(NC(=O)C1=NOC2(CCN(S(=O)(=O)c3cccc(C(F)(F)F)c3)CC2)C1)C(=O)OC(C)(C)C (stereo not shown) [Example 214, 4-methyl-2-{[8-(3-trifluoromethyl-benzenesulphonyl)-1-oxa-2,8-diaza-spiro[4,5]dec-2-ene-3-carbonyl]-amino}-pentanoic acid tert-butyl ester] | 61
CCN(CCNC(=O)C1=NOC2(CCN(S(=O)(=O)N(C)C)CC2)C1)c1cccc(C)c1 [Example 216, 8-dimethylsulphamoyl-1-oxa-2,8-diaza-spiro[4,5]dec-2-ene-3-carboxylic acid [2-(ethyl-m-tolyl-amino)-ethyl]amide] | 64
Cc1cc(C(=O)N2CCC3(CC2)CC(C(=O)NCc2ccccc2)=NO3)c(C)o1 [Example 217, 8-(2,5-dimethyl-furan-3-carbonyl)-1-oxa-2,8-diaza-spiro[4,5]dec-2-ene-3-carboxylic acid benzylamide] | 51
O=C(C1=NOC2(CCN(S(=O)(=O)c3ccc(F)cc3)CC2)C1)N1CCN(C2CCCCCC2)CC1 [Example 218] | 79
